Measured values from patent publication US8921122B2, “System and method for quantitative assessment of biological migration behavior” (The General Hospital Corporation, priority 2008, dated 2014).

B1: E-selectin: Human recombinant E-selectin, cell adhesion molecule used to coat capture surface (R&D Systems ADP1-050) (protein, UniProt P16581 22-610, looked up)
E-selectin: WSYNTSTEAMTYDEASAYCQQRYTHLVAIQNKEEIEYLNSILSYSPSYYWIGIRKVNNVWVWVGTQKPLTEEAKNWAPGEPNNRQKDEDCVEIYIKREKDVGMWNDERCSKKKLALCYTAACTNTSCSGHGECVETINNYTCKCDPGFSGLKCEQIVNCTALESPEHGSLVCSHPLGNFSYNSSCSISCDRGYLPSSMETMQCMSSGEWSAPIPACNVVECDAVTNPANGFVECFQNPGSFPWNTTCTFDCEEGFELMGAQSLQCTSSGNWDNEKPTCKAVTCRAVRQPQNGSVRCSHSPAGEFTFKSSCNFTCEEGFMLQGPAQVECTTQGQWTQQIPVCEAFQCTALSNPERGYMNCLPSASGSFRYGSSCEFSCEQGFVLKGSKRLQCGPTGEWDNEKPTCEAVRCDAVHQPPKGLVRCAHSPIGEFTYKSSCAFSCEEGFELHGSTQLECTSQGQWTEEVPSCQVVKCSSLAVPGKINMSCSGEPVFGTVCKFACPEGWTLNGSAARTCGATGHWSGLLPTCEAPTESNIPLVAGLSAAGLSLLTLAPFLLWLRKCLRKAKKFVPASSCQSLESDGSYQKPSYIL
B2: P-selectin: Human recombinant P-selectin, cell adhesion molecule used to coat capture surface (R&D Systems ADP3-050) (protein, UniProt P16109 42-830, looked up)
P-selectin: WTYHYSTKAYSWNISRKYCQNRYTDLVAIQNKNEIDYLNKVLPYYSSYYWIGIRKNNKTWTWVGTKKALTNEAENWADNEPNNKRNNEDCVEIYIKSPSAPGKWNDEHCLKKKHALCYTASCQDMSCSKQGECLETIGNYTCSCYPGFYGPECEYVRECGELELPQHVLMNCSHPLGNFSFNSQCSFHCTDGYQVNGPSKLECLASGIWTNKPPQCLAAQCPPLKIPERGNMTCLHSAKAFQHQSSCSFSCEEGFALVGPEVVQCTASGVWTAPAPVCKAVQCQHLEAPSEGTMDCVHPLTAFAYGSSCKFECQPGYRVRGLDMLRCIDSGHWSAPLPTCEAISCEPLESPVHGSMDCSPSLRAFQYDTNCSFRCAEGFMLRGADIVRCDNLGQWTAPAPVCQALQCQDLPVPNEARVNCSHPFGAFRYQSVCSFTCNEGLLLVGASVLQCLATGNWNSVPPECQAIPCTPLLSPQNGTMTCVQPLGSSSYKSTCQFICDEGYSLSGPERLDCTRSGRWTDSPPMCEAIKCPELFAPEQGSLDCSDTRGEFNVGSTCHFSCDNGFKLEGPNNVECTTSGRWSATPPTCKGIASLPTPGVQCPALTTPGQGTMYCRHHPGTFGFNTTCYFGCNAGFTLIGDSTLSCRPSGQWTAVTPACRAVKCSELHVNKPIAMNCSNLWGNFSYGSICSFHCLEGQLLNGSAQTACQENGHWSTTVPTCQAGPLTIQEALTYFGGAVASTIGLIMGGTLLALLRKRFRQKDDGKCPLNPHSHLGTYGVFTNAAFDPSP

Tests used:
Type in all cases: cell-based, human
[1] = system: neutrophils; assay: Neutrophil migration assay in chemoattractant gradients (switching gradient device); details: for average displacement in the direction of the gradient: 20 nM/450 μm fMLP or 10 nM/450 μm IL-8 gradient; for directional bias of migration profile (comparison): comparison between substrates / between chemoattractants; for Random motility coefficient (μ): initial 10 minutes of migration
Experimental: The gradient generating device used to study cell migration consists of two inlets, one outlet, and a cell loading port. In a similar manner as explained above, the device was primed after functionalizing the channel surface with adhesion molecules. Two syringes were prepared, one with only buffer containing 0.2% HSA while the other also containing the appropriate concentration of chemokine. Two chemoattractants, either recombinant human interleukin-8 (IL8, Catalog #208-IL, R&D Systems inc.) or N-formyl-methionyl-leucyl-phenylalanine (fMLP, Part # F3506, Sigma-Aldrich) were employed at 10 nM and 20 nM concentrations. For consistency, the two syringes were connected to the device such that chemokine gradient in the cell capture and migration chambers was always in the same orientation, from top (100%) to bottom (0%). After the device was primed, inlet ports were clamped, and the blood sample was loaded through the cell loading port as described in the following section.
A 1.25 mm lancet (Part #366579, Becton Dickinson) was used to prick a finger of a subject, and 10 μL whole blood was drawn with a pipette. Before withdrawing the blood, 70 μL of HBSS mixed with sodium heparin (Part #367871, Becton Dickinson) was injected into the open end of a loading needle using a pipette. The blood in the pipette was then directly mixed with the heparin solution inside the needle. A slight pressure was gradually applied to the open end of the needle using an index finger to push the blood sample through the tubing until a small drop of fluid appeared on the other end of the tubing. To avoid entrapment of air bubbles while connecting the tubing to the PDMS device, a drop of HBSS was always present in excess at the connecting ports of the device. The loose end of the sample tubing was held with forceps and carefully inserted in the PDMS port. Once a sealed connection was established, pressure was again applied to the loading needle to push samples through the cell capture and migration chamber. The inlet and outlet tubings were then clamped using binder clips for 5-10 minutes allowing cells to interact and bind with the glycoprotein molecules.
For the neutrophil capture characterization experiments, images for 7-10 sections (each 750 μm long, FIG. 2B) were acquired at 2 s interval using time lapse microscopy and at least 10 frames were captured. This was done to make sure that only adherent neutrophils were counted. An inverted Olympus microscope (Model # CKX41) and a CMOS color camera (Pixelink PLA742) were used to capture time lapse images in phase contrast mode. A 10× ocular and 10× objective magnification were used. The neutrophils captured in the chambers were counted manually in 7-10 distinct areas for each concentration. The average number of captured cells was calculated from three repeated experiments for each concentration and CAM. Captured time lapse images were converted to 8 bit and individual cells were tracked using Metamorph imaging software (Ver 4.1, Universal Imaging Corporation). Elapsed time and migration distance from the origin in the Y direction were derived for each cell and average displacements were calculated for the entire cell population in consideration. Migration curves representing the average distance traveled in the direction of increasing chemokine concentration against time were plotted and compared. It is notable that the slope of gradient along the flow path in the cell chamber gradually changes depending on the flow rates and the diffusivities of chemoattractants. Therefore, to maintain consistency, only the first upstream quarter of the cell chamber was considered for microscopic observation where the variations in gradient profile are minimal. […]

[2] = system: neutrophils; assay: Further migration analysis on P-selectin functionalized migration chamber with IL-8 gradient
Experimental: The surface of the migration chamber of a device as described herein was functionalized with P-selectin by exposure to a 10 nM solution of P-selectin for 10 minutes, followed by Hanks buffer wash for 5 minutes. Capillary blood was collected from the tip of a finger using a lancet. A volume of 10 μL (equivalent of a small droplet) was collected in 10 μL heparin 2×, mixed well by repeated pipetting, and introduced into the device. After filling the main channel, a slow flow rate of the blood was established by raising the inlet tube at 4-5 cm above the level of the device.
After 5 minutes, the blood inlet was clamped, and buffer was introduced from one of the gradient generators that had Hanks buffer solution at both inlets. After 1 minute of washing all the red blood cells through the device, only leukocytes were left on the P selectin coated surface of the migration chamber. Based on observed morphological characteristics, most of the remaining captured cells appeared to be neutrophils. After 5-10 minutes of washing using a buffer, a gradient of IL-8 (from 0 to 12 nM over 400 μm distance) was rapidly established using the second gradient chamber. […]
The displacement of neutrophils in the direction of the gradient was also measured as a function of time.

[3] = system: neutrophils; assay: Neutrophil capture on CAM-coated channels primed with 20 nM fMLP; details: CAM coated channel primed with 20 nM fMLP
Experimental: To identify whether the chemoattractant exposure has any significant effect on neutrophil capture from whole blood, the CAM coated channel was primed with 20 nM fMLP, and the cells were captured in a similar manner as described above. The effects of chemotactic priming of channels appeared significant from the statistical analysis (P<<0.05).

[4] = system: neutrophils; assay: Neutrophil capture from whole blood on CAM-coated microfluidic channels
From the text: Three different adhesion molecules (P-selectin, E-selectin and fibronectin) were used to capture primary neutrophils from whole blood in the microfluidic channels. These substrates were chosen because of their significant role in neutrophil trafficking in vivo. To characterize the neutrophil capture efficiency, the cell capture chambers were coated with the adhesion molecules by flowing through solutions of six different concentrations of each adhesion molecule (concentrations shown in Table 1). Solutions were prepared by diluting the stock solution in sterile water or phosphate buffered saline (PBS) as advised by the vendors. These dilutions were loaded in the six cell capture chambers of the device and incubated for 1 h at room temperature. After one hour, P-selectin was aspirated and the flow chambers perfused with 2% HSA (Human Serum Albumin, Sigma-Aldrich Catalog # A5843) in Hank's buffer saline solution (HBSS, Sigma-Aldrich Catalog # H9269) to block non-specific binding sites and incubated for at least 15 minutes.
The PDMS device used to characterize cell capture consists of six distinct parallel channels each having an inlet and an outlet port (FIG. 2A). The channel dimensions of each segment of the capture device are 750×450×80 μm (L×W×H). The length of each segment was chosen such that it will conveniently fit in the field of view at 10× ocular and 10× objective magnification. 10 μL whole blood was mixed with 70 μL it heparinized HBSS solution and loaded in the cell chamber. Six 1 mL syringes (Part #309602, Becton, Dickinson and Company, Franklin Lakes, N.J.) were filled with HBSS containing 0.2% HSA. Most of the air trapped in the dead volume of the syringe was eliminated by tapping the inverted syringes. Syringes were then connected to tygon tubing approximately 10 to 12 inches long (Part # TGY-010-C, Small parts Inc.) through the needles (Part # NE-301PLC, Small parts Inc.). The syringes were placed on the syringe pump rack (PHD 2000, Harvard Apparatus, Holliston, Mass.), and the loose ends of the tubing were connected to the inlets of the device properly secured on the microscope stage. Smaller fragments of tubing were connected to the outlet ports. The pump was turned on at the rate of 4-5 μL/min, and the outlet tubings were clamped once the channels were filled with fluid, while leaving the pump running. This priming step was necessary to eliminate any trapped air pockets by continuing the inflow that pressurizes the air bubbles to diffuse through the porous PDMS matrix. Blood sample could be loaded as soon as all the air pockets were eliminated.
A 1.25 mm lancet (Part #366579, Becton Dickinson) was used to prick a finger of a subject, and 10 μL whole blood was drawn with a pipette. […]

[5] = 50 μg/mL E-selectin surface, first 30 minutes
[6] = 200 μg/mL fibronectin surface, 30 minutes
[7] = substrate E-selectin, mean of about 15 cells
[8] = substrate Fibronectin, less than 10 cells
[9] = substrate P-selectin, mean of about 15 cells

Row | Molecule | average displacement in the direction of the gradient [1, 5] | average displacement in the direction of the gradient [1, 6] | directional bias of migration profile (comparison) [1] | Random motility coefficient (μ) [1, 7] | Random motility coefficient (μ) [1, 8] | Random motility coefficient (μ) [1, 9] | cells captured on primed vs. unprimed surface [3] | further results
1 | CSCC[C@H](NC=O)C(=O)N[C@@H](CC(C)C)C(=O)N[C@@H](Cc1ccccc1)C(=O)O [fMLP, N-formyl-methionyl-leucyl-phenylalanine, reference compound] | 50 μm | about 65 μm | greater directional bias than IL8 | 23.64 μm^2/minute | 17.7 μm^2/minute | 8.07 μm^2/minute |  | 
2 | IL-8: recombinant human interleukin-8, chemoattractant (Catalog #208-IL, R&D Systems) | 70 μm | 35 μm |  | 33.92 μm^2/minute | 27.01 μm^2/minute | 14.89 μm^2/minute |  | neutrophil migration response to gradient ([2]; IL-8 gradient from 0 to 12 nM over 400 μm, P-selectin coated surface): sustained migration in the direction of the gradient
3 | fibronectin |  |  |  |  |  |  | five times more cells | cells captured ([4]; coated surfaces at 200 μg/mL concentration of priming solution, whole blood): 3-4 cells/mm^2
4 | B1 |  |  |  |  |  |  | approximately twice as many cells | maximum capture efficiency ([4]; surface coated with 50 μg/mL solution, whole blood): ~15 cells/mm^2
5 | B2 |  |  | more directionally biased and persistent |  |  |  | not significant | neutrophil activation by binding to capture surface (morphology) ([4]; before chemokine introduced, P-selectin functionalized surface (FIGS. 7A-7C)): did not induce neutrophil activation; maximum capture efficiency ([4]; surface coated with 25 μg/mL solution, whole blood): approximately 35 cells/mm^2; chemokinesis of neutrophils on functionalized substrate ([2]; in the absence of IL-8): No significant chemokinesis
